One compound from patent US11026943B2, “Aminoquinoline derivatives and uses thereof” (UNIVERSITY OF DELHI, priority 2012, dated 2021) can be followed below.

Assay [1] has as its system LBDs of Nur77, GR, LXR, RXR, PPARα, PPARγ. In words: Target selectivity: GAL4-LBD reporter assays of other nuclear receptors. It is filed as cell-based. The following applies: FIG. 19; 30 μM AQ.
Experimental: The positive reactivity of these NR constructs was confirmed by the known activators (2 nM dexamethasone, 20 nM retinoic acid, 2 μM GW3965, 50 nM GW7647, and 5 nM GW1929 for GR, RXR, LXR, PPARα, and PPARγ, respectively). The basal level of transcriptional activity was normalized to 1. Bars represent means±SEM from three independent experiments.
(§1) Human neuroblastoma SK-N-BE(2)C cells were maintained in Dulbecco's modified Eagle's medium (DMEM) supplemented with 10% fetal bovine serum. All culture media contained 100 units/ml penicillin and 100 μg/ml streptomycin. For transfection, cells were plated at 1.5×10^5 cells/well in the DMEM media without antibiotic into 24-well plates 1 day prior to transfection. Transfections were carried out by the Lipofectamine plus (Invitrogen) according to the manufacture's protocol. Total DNA amount was 0.5 μg per well with 0.1 μg of pRSV-β-gal as an internal control. 6 hours after transfection, compounds in the DMEM media with 1% charcoal-stripped fetal calf serum was added and incubated overnight. […] Then equal volume of firefly luciferase substrate was added and the luciferase activity was measured using a Luminometer plate reader and normalized for beta-galactosidase activity.
Assay [2] addresses T1, Nurr1 interaction with SRC-1 and SRC-3 (Mus musculus, UniProt Q06219).
T1 construct: the C-terminal myc-tagged full-length Nurr1; His (from vector pCDNA3.1/myc-His) (C); expressed in transfected cells; host or cells: SK-N-BE(2)C human neuroblastoma cells
The experiment in a line: Co-immunoprecipitation of Nurr1 with SRC-1/SRC-3 in SK-N-BE(2)C cells. The following applies: 30 μM AQ or 100 μM CQ for 16 hours. It is filed as cell-based.

Assay [3] concerns the target Nurr1 LBD (Mus musculus, UniProt Q06219). In words: Surface plasmon resonance (BIAcore) binding, Nurr1-LBD. The procedure: Binding experiments were performed with the surface Plasmon Resonance-based biosensor instrument BIAcore 3000 (BIAcore AB, Uppsala). Immobilization of the purified proteins on the sensor surface was performed following the standard amine coupling procedure according to manufacturer's instructions. The final immobilization response of each protein was 6000 resonance units. A reference surface was generated simultaneously under the same conditions with BSA and used as a blank to correct for instrument and buffer artifacts. AQ and kanamycin were injected at variable concentrations at 20 μl/min flow rate, and binding to the protein immobilized on the chip was monitored in real-time. […] Binding data were analyzed using the BIAcore 3000 CONTROL® software and the BIAEVALUATION® software.
To investigate whether AQ and CQ physically interact with Nurr1's LBD, the inventors purified the Nurr1 LBD polypeptide (amino acid 328-598) and analyzed their physical binding using the Biacore S51 SPR sensor, which has a higher sensitivity and improved fluidics, enabling the monitoring of small signal changes derived from binding of compounds to proteins.
(In general: In SPR one partner is held on a chip, and binding of the other changes the refractive index at the surface.)

The subject of assay [4] is neural precursor cells from E14 rat cortices. In words: In vitro differentiation of Nurr1-transduced neural precursor cells into TH+ DA neurons. In kind it is cell-based. The protocol:
Error bars represent standard deviations.
Neural precursor cells (NPCs) from dissection of rat embryos days 14 cortices (E14) were proliferated in N2 medium supplemented with 20 ng/mL basic fibroblast growth factor (bFGF; R&D Systems, Minneapolis, Minn., USA). Following 3-4 days of bFGF-expansion, NPCs were dissociated in Ca^2+/Mg^2+-free Hank's balanced salt solution (CMF-HBSS, Invitrogen, Carlsbad, Calif.) and re-plated onto coverslips (12 mm diameter; Carolina Biological Supply Company, Burlington, N.C.) at 32,000 cells/coverslip pre-coated with poly-L-ornithine (PLO; […], Sigma, St Louis, Mo.) at 37° C. overnight followed by fibronectin (FN; […], Sigma) overnight. Prior to drug treatment, NPCs were transduced with Nurr1-expressing retrovirus of MOI 5 in the presence of polybrene (1 μg/ml, Sigma), cultured overnight in N2, and then differentiated. Getting started chemical treatment (every day for 2 hours), bFGF was not added anymore^3.
Cells were fixed in 4% paraformaldehyde (PFA) for 20 min, washed and then incubated with blocking buffer [PBS, 10% goat serum (Invitrogen), 0.3% Triton X-100 (Sigma)] for 1 hour. […] Following washes with PBS, appropriate fluorescence-tagged secondary antibodies (Jackson Immunoresearch Laboratories, West Grove, Pa.) were used for visualization. […]

Assay [5] concerns aphakia (ak/ak) mice. In words: Behavioral studies in ak/ak mice (Pole, Challenging Beam, Cylinder, Rotarod) and SN histology. In kind it is in vivo, mouse. The procedure:
Either 20 mg/kg of AQ (AQ group) or the saline (Saline group) was intraperitoneally injected (I.P.) twice per day for two weeks. 8 mg/kg of L-DOPA (L-DOPA group) in 0.5% DMSO was injected (I.P.) once per day for two weeks. The L-DOPA group was given 12.5 mg/kg benserazide 20 min prior to administration of L-DOPA.
Each ak mouse was randomly assigned into one of three experiment groups, (1) saline group (negative control; n=8), (2) L-DOPA group (positive control; n=8), (3) AQ group (n=10). Each WT or rdl mouse was randomly divided into two groups, (1) saline group (n=8) and (2) AQ group (n=10). Pole Test, Challenging Beam Traversal Test, and Cylinder Test were performed at two time points, immediately and one month after two weeks of either AQ or saline injection. Each mouse ran each task twice. Rota rod test was performed immediately after two weeks of either drug or saline injection. Acclimation and data recording process were identical to the rat study described above. All tasks were performed as described previously^11 and the short description of each task is as follows.
A vertical wooden pole 50 cm in length and 1 cm in diameter was used for Pole Test. Each mouse was gently placed head upwards on top of the pole which is placed on each animal's home cage. Each mouse ran tree trials per session during 2 training sessions. On the testing day, mice ran three trials. Two parameters (the meantime to orient downward and the total travel mean time) were used for the statistical analysis.
A 1 m length of plastic beam was used for Challenging Beam Traversal Test. The starting width of the beam was 3.5 cm and it gradually narrowed in 1 c increments to 0.5 cm at the other end site of the beam. Animals were trained to walk from the wide end to the other end for 2 sessions, three trials per session before testing. A mesh grid was removed during the training period. On the testing day, a mesh grid (1 cm square) covering the beam surface was equipped leaving a […] room between the grid and the beam surface. On the testing day, mice ran three trials. Two parameters (the mean number of steps taken by each animal and the mean time to traverse across three trials) were collected and used for statistical analysis.
A small transparent cylinder (height, 15.5 cm; diameter, 12.7 cm) was used to evaluate somatosensory motor function. Mice were placed in the cylinder and their rears were counted for 5 minutes. The forelimb touching the Plexiglas wall (a vertical movement) is defined as a full rear. The mean number of forelimb use was calculated for the statistical analysis. […]
The Rota rod equipment (Med-Associates, Inc, Albans, Vt., USA) was used to measure motor coordination. […] The mean latency to fall off from the Rota rod was measured for the statistical analysis. […]
(In the rotarod test animals must keep their balance on a rotating rod.)

Assay [6] deals with T2, Nurr1 (Mus musculus, UniProt Q06219).
T2 construct: Full-length mouse Nurr1cDNA was amplified by RT-PCR from pSV40Nurr1; expressed in transfected cells; host or cells: SK-N-BE(2)C human neuroblastoma cells
T2 sequence (Q06219 whole entry): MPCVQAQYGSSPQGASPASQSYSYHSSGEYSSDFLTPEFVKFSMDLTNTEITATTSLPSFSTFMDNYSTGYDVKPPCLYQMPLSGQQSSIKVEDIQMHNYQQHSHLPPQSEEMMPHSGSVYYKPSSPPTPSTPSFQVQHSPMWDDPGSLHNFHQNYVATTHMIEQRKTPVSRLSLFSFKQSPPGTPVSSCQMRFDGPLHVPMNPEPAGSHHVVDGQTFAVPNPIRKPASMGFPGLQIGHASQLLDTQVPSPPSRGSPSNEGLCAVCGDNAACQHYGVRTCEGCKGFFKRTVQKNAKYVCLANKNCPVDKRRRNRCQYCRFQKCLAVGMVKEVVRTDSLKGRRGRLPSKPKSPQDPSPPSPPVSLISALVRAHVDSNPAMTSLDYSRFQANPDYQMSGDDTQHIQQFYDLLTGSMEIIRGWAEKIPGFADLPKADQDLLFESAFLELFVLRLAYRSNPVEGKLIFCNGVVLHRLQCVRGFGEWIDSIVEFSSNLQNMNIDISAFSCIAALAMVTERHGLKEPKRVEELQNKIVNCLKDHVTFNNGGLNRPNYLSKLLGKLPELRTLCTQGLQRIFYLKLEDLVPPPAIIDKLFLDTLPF
The experiment in a line: High-throughput cell-based screen of Nurr1-dependent TH promoter activation. The following applies: library of 960 FDA-approved drugs.
Text: The pTH2600LUC reporter construct contains the 2.6 kb upstream sequences of the rat tyrosine hydroxylase gene in front of a firefly luciferase gene in pGL3-basic vector. A Nurr1-expression plasmid, pSV40Nurr1, was kindly provided by Dr Orla M. Conneely at Baylor College of Medicine (Houston, Tex., USA). Full-length mouse Nurr1cDNA was amplified by RT-PCR from pSV40Nurr1 using forward 5′-[sequence]-3′ (SEQ ID NO: 1) and reverse 5′-[sequence]-3′ (SEQ ID NO: 2) oligonucleotides.
as §1

SMILES strings stand for the structures.

Chain of Nurr1 LBD (Q06219 328-598): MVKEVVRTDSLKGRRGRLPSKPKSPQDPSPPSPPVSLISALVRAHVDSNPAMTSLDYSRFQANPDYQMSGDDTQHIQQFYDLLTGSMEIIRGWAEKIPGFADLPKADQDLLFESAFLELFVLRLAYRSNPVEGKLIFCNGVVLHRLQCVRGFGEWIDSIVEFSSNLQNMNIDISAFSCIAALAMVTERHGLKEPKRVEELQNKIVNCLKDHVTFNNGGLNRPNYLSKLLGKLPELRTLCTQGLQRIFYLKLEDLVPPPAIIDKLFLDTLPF
T1 sequence (Q06219 whole entry): as the sequence (Q06219 whole entry) above

Regarding `CCN(CC)Cc1cc(Nc2ccnc3cc(Cl)ccc23)ccc1O` [AQ, amodiaquine], the “transcriptional activity of other nuclear receptors” value in assay [1] is given as “unable to induce”. Also, in assay [2], the “Nurr1 interactions with SRC-1 and SRC-3” value was “significantly enhanced”. The “binding to Nurr1-LBD (SPR)” value in assay [3] is given as “specifically bound”. Besides, the “number of TH+ neurons generated from neural stem cells” value in assay [4] is recorded as “enhanced”. Besides, the “mRNA expression levels of TH, DAT, VMAT and AADC genes” value in assay [4] (in vitro differentiation for 9 d) is “enhanced”. For the same compound, the “motor deficits in Pole, Challenging Beam, Cylinder and Rotarod tests” value in assay [5] (2 weeks of AQ 20 mg/kg i.p. twice per day) is “significantly improved”. In addition, the “activated microglia (CD11b) in the SN” value in assay [5] (after AQ for 2 weeks) is listed as “reduced to the level of wild type mice”. Further, the “number of TH+ neurons in ak/ak mice” value in assay [5] (data not shown) is “not detectably altered”. Also, in assay [6], the screen outcome is on record as “hit compounds”.
